# ChEMBL document CHEMBL1128491, “Flexible 1-[(2-aminoethoxy)alkyl]-3-ar(o)yl(thio)ureas as novel acetylcholinesterase inhibitors. Synthesis and biochemical evaluation” (J Med Chem, 1995)
# Target: T1, Acetylcholinesterase (Rattus norvegicus, UniProt P37136)
# T1 sequence (P37136 whole entry): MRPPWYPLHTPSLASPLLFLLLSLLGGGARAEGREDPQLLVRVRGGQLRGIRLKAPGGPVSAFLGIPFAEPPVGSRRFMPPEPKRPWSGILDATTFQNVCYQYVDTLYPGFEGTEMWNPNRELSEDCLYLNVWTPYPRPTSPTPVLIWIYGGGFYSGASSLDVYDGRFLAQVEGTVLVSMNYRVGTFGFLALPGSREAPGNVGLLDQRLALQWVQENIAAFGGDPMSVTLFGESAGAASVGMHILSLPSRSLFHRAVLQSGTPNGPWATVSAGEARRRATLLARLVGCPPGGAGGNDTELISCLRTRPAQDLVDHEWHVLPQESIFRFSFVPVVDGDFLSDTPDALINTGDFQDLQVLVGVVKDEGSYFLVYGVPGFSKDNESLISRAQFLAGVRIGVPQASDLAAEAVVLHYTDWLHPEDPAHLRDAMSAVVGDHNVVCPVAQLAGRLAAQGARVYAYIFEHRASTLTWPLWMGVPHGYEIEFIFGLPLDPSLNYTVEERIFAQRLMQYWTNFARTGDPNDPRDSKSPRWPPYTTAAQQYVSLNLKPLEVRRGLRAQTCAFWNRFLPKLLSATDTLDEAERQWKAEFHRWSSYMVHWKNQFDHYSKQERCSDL
# Description: In vitro inhibitory effect on rat Acetylcholinesterase
row,Compound,IC50
1,CN(CCOCCNC(=S)Nc1ccc(OC(F)(F)F)cc1)Cc1ccccc1,1 µM
2,CN(CCOCCNC(=S)Nc1cccc2ccccc12)Cc1ccccc1,> 10 µM
3,CN(CCOCC/N=C(\S)Nc1cccnc1)Cc1ccccc1,4 µM
4,COc1ccc(NC(=S)NCCOCCN(C)Cc2cccc([N+](=O)[O-])c2)cc1OC,1.5 µM
5,CN(CCOCCCNC(=S)NC(=O)c1ccccc1)Cc1ccccc1,1.1 µM
6,CN(CCOCCNC(=S)NC(=O)c1ccc(-c2ccccc2)cc1)Cc1ccccc1,0.23 µM
7,CN(CCOCCNC(=S)NC(=O)c1ccccc1)C1CCCCC1,0.013 µM
8,CN(CCOCCNC(=S)NC(=O)c1ccc(Cl)c(Cl)c1)Cc1ccccc1,0.055 µM
9,CN(CCOCCNC(=S)NC(=O)c1ccccc1)Cc1ccccc1,0.12 µM
10,CN(CCOCCNC(=S)NC1CCCCC1)Cc1ccccc1,1.4 µM
11,CN(CCOCCNC(=S)NC(=O)C1=CC2C(=O)c3ccccc3C(=O)C2C=C1)Cc1ccccc1 (configuration not stated),0.006 µM
12,COc1ccc(C(=O)NC(=S)NCCOCCN(C)Cc2ccccc2)cc1,0.026 µM
13,CCN(CCOCCNC(=O)NCc1ccccc1)CC1CCCCC1,> 10 µM
14,CN(CCOCCNC(S)=NC(=O)c1cccc([N+](=O)[O-])c1)Cc1ccccc1,0.015 µM
15,CN(CCOCCNC(=S)NC(=O)c1ccc2c(c1)-c1ccccc1C2=O)Cc1ccccc1,0.03 µM
16,CN(CCOCCNC(=O)Nc1ccc([N+](=O)[O-])cc1)Cc1ccccc1,2.3 µM
17,Cc1ccc(C(=O)NC(=S)NCCOCCN(C)Cc2ccccc2)cc1,0.077 µM
